Key:
Assay type in all cases: cell-based
Details in all cases: 24 hours of compound treatment, 50 nM and 500 nM
WEE1 = biological target: T1, WEE1 (Homo sapiens, UniProt P30291+Q96SW2); experiment: Western-blot assay, substrate protein degradation in hPBMCs: WEE1
T1 construct: effects of the compounds of the present disclosure on the expression of target proteins in cells; endogenous in cells; host or cells: human PBMCs (hPBMCs)

IKZF1 = biological target: T2, IKZF1 (Homo sapiens, UniProt Q13422+Q96SW2); experiment: Western-blot assay, substrate protein degradation in hPBMCs: IKZF1
T2 construct: effects of the compounds of the present disclosure on the expression of target proteins in cells; endogenous in cells; host or cells: human PBMCs (hPBMCs)
T2 sequence (Q13422 whole entry): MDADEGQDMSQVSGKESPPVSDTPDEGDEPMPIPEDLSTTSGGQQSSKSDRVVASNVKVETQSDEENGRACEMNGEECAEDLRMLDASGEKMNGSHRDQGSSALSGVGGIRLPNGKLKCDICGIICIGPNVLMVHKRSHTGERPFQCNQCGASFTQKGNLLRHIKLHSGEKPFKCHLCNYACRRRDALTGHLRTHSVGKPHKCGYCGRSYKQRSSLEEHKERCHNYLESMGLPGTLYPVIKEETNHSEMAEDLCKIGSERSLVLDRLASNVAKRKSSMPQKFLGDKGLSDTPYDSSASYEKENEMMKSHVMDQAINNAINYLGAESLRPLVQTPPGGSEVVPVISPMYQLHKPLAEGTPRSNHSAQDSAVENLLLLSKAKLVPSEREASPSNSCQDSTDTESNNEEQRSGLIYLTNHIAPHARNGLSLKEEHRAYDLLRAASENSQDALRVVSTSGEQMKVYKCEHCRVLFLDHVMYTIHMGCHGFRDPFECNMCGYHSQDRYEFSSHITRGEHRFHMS
T2 sequence (Q96SW2 whole entry): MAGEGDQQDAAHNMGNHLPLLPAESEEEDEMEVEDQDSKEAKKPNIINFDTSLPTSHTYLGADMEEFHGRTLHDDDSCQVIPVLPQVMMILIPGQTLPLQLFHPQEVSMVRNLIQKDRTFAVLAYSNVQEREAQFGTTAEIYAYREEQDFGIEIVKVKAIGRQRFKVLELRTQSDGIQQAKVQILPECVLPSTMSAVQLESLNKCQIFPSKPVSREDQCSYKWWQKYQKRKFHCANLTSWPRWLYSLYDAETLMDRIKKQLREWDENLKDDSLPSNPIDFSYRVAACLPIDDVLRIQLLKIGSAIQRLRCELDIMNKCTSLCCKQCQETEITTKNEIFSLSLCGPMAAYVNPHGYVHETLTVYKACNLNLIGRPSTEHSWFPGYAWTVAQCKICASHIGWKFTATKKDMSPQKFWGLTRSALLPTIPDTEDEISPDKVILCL
T2 sequence (Q16531 whole entry partner): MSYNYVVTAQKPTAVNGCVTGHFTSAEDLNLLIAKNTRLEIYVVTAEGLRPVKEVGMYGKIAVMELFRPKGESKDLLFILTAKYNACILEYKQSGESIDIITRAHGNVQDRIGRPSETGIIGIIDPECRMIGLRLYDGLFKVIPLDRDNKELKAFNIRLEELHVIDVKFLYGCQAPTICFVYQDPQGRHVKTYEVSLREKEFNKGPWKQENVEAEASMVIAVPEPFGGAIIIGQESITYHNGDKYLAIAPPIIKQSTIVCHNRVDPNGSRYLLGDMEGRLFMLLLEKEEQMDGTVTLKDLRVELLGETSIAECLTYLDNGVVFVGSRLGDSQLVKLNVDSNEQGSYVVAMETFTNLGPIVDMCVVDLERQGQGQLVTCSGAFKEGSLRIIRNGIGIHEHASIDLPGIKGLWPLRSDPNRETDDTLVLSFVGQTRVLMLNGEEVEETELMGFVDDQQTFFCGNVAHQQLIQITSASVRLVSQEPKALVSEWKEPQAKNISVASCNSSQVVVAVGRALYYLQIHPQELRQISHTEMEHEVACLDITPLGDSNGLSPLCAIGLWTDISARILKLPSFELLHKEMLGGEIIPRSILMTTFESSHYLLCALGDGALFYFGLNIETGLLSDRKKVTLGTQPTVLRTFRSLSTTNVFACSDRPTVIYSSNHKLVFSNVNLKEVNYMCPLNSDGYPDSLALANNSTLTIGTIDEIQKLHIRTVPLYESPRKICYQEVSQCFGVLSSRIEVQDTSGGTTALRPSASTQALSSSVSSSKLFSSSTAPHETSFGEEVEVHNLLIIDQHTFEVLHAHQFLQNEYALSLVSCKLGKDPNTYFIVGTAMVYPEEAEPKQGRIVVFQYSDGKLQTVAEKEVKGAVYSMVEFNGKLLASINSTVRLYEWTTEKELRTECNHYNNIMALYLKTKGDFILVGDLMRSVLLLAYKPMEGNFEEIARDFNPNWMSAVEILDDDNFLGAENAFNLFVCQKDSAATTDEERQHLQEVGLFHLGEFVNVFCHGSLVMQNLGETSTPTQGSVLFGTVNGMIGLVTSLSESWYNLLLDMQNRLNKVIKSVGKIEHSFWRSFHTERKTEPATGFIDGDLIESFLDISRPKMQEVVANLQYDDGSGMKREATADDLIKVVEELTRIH

IKZF2 = biological target: T3, IKZF2 (Homo sapiens, UniProt Q96SW2+Q9UKS7); experiment: Western-blot assay, substrate protein degradation in hPBMCs: IKZF2
T3 construct: effects of the compounds of the present disclosure on the expression of target proteins in cells; endogenous in cells; host or cells: human PBMCs (hPBMCs)

IKZF3 = biological target: T4, IKZF3 (Homo sapiens, UniProt Q96SW2+Q9UKT9); experiment: Western-blot assay, substrate protein degradation in hPBMCs: IKZF3
T4 construct: effects of the compounds of the present disclosure on the expression of target proteins in cells; endogenous in cells; host or cells: human PBMCs (hPBMCs)
T4 sequence (Q9UKT9 whole entry): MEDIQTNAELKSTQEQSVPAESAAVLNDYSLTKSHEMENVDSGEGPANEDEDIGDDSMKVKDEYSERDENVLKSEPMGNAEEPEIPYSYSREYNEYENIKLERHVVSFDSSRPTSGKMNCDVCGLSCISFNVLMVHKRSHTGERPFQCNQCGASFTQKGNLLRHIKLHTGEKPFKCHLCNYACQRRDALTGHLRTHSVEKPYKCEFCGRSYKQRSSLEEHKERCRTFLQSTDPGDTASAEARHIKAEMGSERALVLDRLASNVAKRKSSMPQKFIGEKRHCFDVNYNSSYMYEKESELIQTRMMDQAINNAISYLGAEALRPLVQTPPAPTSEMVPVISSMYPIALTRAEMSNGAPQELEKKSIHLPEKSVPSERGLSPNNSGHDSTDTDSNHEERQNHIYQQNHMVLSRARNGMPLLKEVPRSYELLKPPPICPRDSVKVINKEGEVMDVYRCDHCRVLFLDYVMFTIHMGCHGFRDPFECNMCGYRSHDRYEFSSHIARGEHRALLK
T4 sequence (Q96SW2 whole entry): as the sequence (Q96SW2 whole entry) above
T4 sequence (Q16531 whole entry partner): as the sequence (Q16531 whole entry partner) above

CK1α = biological target: T5, CK1α (Homo sapiens, UniProt P48729+Q96SW2); experiment: Western-blot assay, substrate protein degradation in hPBMCs: CK1α
T5 construct: effects of the compounds of the present disclosure on the expression of target proteins in cells; endogenous in cells; host or cells: human PBMCs (hPBMCs)
T5 sequence (P48729 whole entry): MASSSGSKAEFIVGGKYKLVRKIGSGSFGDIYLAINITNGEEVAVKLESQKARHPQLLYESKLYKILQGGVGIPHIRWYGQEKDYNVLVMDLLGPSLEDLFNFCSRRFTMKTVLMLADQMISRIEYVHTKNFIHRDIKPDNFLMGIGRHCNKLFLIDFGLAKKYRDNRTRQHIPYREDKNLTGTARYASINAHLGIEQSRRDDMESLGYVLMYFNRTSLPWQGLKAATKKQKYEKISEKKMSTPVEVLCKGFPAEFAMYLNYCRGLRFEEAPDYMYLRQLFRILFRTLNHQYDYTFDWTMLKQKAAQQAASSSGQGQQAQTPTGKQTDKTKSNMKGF
T5 sequence (Q96SW2 whole entry): as the sequence (Q96SW2 whole entry) above
T5 sequence (Q16531 whole entry partner): as the sequence (Q16531 whole entry partner) above

GSPT1 = biological target: T6, GSPT1 (Homo sapiens, UniProt P15170+Q96SW2); experiment: Western-blot assay, substrate protein degradation in hPBMCs: GSPT1
T6 construct: effects of the compounds of the present disclosure on the expression of target proteins in cells; endogenous in cells; host or cells: human PBMCs (hPBMCs)
T6 sequence (P15170 whole entry): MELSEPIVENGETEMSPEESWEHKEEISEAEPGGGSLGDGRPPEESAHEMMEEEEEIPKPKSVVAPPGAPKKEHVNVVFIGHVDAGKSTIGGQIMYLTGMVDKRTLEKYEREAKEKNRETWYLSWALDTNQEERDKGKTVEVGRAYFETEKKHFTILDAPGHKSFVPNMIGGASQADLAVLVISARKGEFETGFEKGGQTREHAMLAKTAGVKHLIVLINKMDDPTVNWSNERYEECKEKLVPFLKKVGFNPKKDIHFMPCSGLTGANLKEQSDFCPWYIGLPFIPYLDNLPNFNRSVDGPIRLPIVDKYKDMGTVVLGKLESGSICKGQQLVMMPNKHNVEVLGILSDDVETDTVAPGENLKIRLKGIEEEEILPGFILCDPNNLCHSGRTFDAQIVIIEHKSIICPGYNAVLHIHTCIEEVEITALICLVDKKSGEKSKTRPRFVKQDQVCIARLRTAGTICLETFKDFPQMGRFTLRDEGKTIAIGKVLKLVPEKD
T6 sequence (Q96SW2 whole entry): as the sequence (Q96SW2 whole entry) above
T6 sequence (Q16531 whole entry partner): as the sequence (Q16531 whole entry partner) above

T1 sequence (P30291 whole entry): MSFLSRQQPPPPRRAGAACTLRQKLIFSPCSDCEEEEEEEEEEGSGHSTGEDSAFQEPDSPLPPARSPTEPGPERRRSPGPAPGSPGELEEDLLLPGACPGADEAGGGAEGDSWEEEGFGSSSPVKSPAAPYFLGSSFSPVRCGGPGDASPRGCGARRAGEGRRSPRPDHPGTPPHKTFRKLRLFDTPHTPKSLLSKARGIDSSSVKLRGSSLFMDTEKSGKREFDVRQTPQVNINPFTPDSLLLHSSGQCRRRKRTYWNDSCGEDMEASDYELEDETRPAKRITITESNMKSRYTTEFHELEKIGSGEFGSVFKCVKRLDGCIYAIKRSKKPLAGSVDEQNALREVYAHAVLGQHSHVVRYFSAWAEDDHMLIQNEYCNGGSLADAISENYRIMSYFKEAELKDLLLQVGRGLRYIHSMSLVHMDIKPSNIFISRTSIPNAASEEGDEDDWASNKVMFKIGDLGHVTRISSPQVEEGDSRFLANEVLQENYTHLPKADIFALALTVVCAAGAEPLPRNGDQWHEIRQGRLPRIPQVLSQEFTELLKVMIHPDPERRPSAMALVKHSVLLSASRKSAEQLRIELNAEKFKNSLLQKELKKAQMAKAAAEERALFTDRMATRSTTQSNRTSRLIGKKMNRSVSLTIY
T1 sequence (Q96SW2 whole entry): as the sequence (Q96SW2 whole entry) above
T1 sequence (Q16531 whole entry partner): as the sequence (Q16531 whole entry partner) above

SMILES	substrate protein remaining % WEE1 (WEE1)	substrate protein remaining % IKZF1 (IKZF1)	substrate protein remaining % IKZF2 (IKZF2)	substrate protein remaining % IKZF3 (IKZF3)	substrate protein remaining % CK1α (CK1α)	substrate protein remaining % GSPT1 (GSPT1)
O=C1CCN(N2Cc3cc(CN4CCN(c5n[nH]c6cc(F)ccc56)CC4)ccc3C2=O)C(=O)N1 [GT-07545, 1-(5-((4-(6-fluoro-1H-indazol-3-yl)piperazin-1-yl)methyl)-1-oxoisoindolin-2-yl)dihydropyrimidine-2,4(1H,3H)-dione]	A (0% ≤ substrate protein remaining % ≤ 80%)	A (0% ≤ substrate protein remaining % ≤ 80%)	B (80%< substrate protein remaining %≤ 100%)	B (80%< substrate protein remaining %≤ 100%)	A (0% ≤ substrate protein remaining % ≤ 80%)	A (0% ≤ substrate protein remaining % ≤ 80%)
O=C1CCN(N2Cc3cc(CN4CCC(c5c[nH]c6ncccc56)CC4)ccc3C2=O)C(=O)N1 [GT-07576, 1-(5-((4-(1H-pyrrolo[2,3-b]pyridin-3-yl)piperidin-1-yl)methyl)-1-oxoisoindolin-2-yl)dihydropyrimidine-2,4(1H,3H)-dione]	A (0% ≤ substrate protein remaining % ≤ 80%)	A (0% ≤ substrate protein remaining % ≤ 80%)	A (0% ≤ substrate protein remaining % ≤ 80%)	B (80%< substrate protein remaining %≤ 100%)	A (0% ≤ substrate protein remaining % ≤ 80%)	A (0% ≤ substrate protein remaining % ≤ 80%)
O=C1CCN(N2Cc3cc(CN4CCC(n5c(=O)[nH]c6cc(F)ccc65)CC4)ccc3C2=O)C(=O)N1 [GT-07579, 1-(5-((4-(5-fluoro-2-oxo-2,3-dihydro-1H-benzo[d]imidazol-1-yl)piperidin-1-yl)methyl)-1-oxoisoindolin-2-yl)dihydropyrimidine-2,4(1H,3H)-dione]	A (0% ≤ substrate protein remaining % ≤ 80%)	A (0% ≤ substrate protein remaining % ≤ 80%)	A (0% ≤ substrate protein remaining % ≤ 80%)	B (80%< substrate protein remaining %≤ 100%)	B (80%< substrate protein remaining %≤ 100%)	A (0% ≤ substrate protein remaining % ≤ 80%)
O=C1CCN(N2C(=O)c3ccc(CN4CC=C(c5c[nH]c6cc(F)ccc56)CC4)cc3C2=O)C(=O)N1 [GT-07580, 2-(2,4-dioxotetrahydropyrimidin-1(2H)-yl)-5-((4-(6-fluoro-1H-indol-3-yl)-3,6-dihydropyridin-1(2H)-yl)methyl)isoindoline-1,3-dione]	A (0% ≤ substrate protein remaining % ≤ 80%)	A (0% ≤ substrate protein remaining % ≤ 80%)	A (0% ≤ substrate protein remaining % ≤ 80%)	A (0% ≤ substrate protein remaining % ≤ 80%)	B (80%< substrate protein remaining %≤ 100%)	A (0% ≤ substrate protein remaining % ≤ 80%)
Cn1cc(C2CCN(Cc3ccc4c(c3)C(=O)N(N3CCC(=O)NC3=O)C4=O)CC2)c2ccc(F)cc21 [GT-07581, 2-(2,4-dioxotetrahydropyrimidin-1(2H)-yl)-5-((4-(6-fluoro-1-methyl-1H-indol-3-yl)piperidin-1-yl)methyl)isoindoline-1,3-dione]	A (0% ≤ substrate protein remaining % ≤ 80%)	A (0% ≤ substrate protein remaining % ≤ 80%)	A (0% ≤ substrate protein remaining % ≤ 80%)	B (80%< substrate protein remaining %≤ 100%)	B (80%< substrate protein remaining %≤ 100%)	A (0% ≤ substrate protein remaining % ≤ 80%)
O=C1CCN(N2C(=O)c3ccc(CN4CCC(c5c[nH]c6ncccc56)CC4)cc3C2=O)C(=O)N1 [GT-07582, 5-((4-(1H-pyrrolo[2,3-b]pyridin-3-yl)piperidin-1-yl)methyl)-2-(2,4-dioxotetrahydropyrimidin-1(2H)-yl)isoindoline-1,3-dione]	A (0% ≤ substrate protein remaining % ≤ 80%)	A (0% ≤ substrate protein remaining % ≤ 80%)	A (0% ≤ substrate protein remaining % ≤ 80%)	B (80%< substrate protein remaining %≤ 100%)	B (80%< substrate protein remaining %≤ 100%)	A (0% ≤ substrate protein remaining % ≤ 80%)
O=C1CCN(N2C(=O)c3ccc(CN4CCC(n5c(=O)[nH]c6cc(F)ccc65)CC4)cc3C2=O)C(=O)N1 [GT-07583, 2-(2,4-dioxotetrahydropyrimidin-1(2H)-yl)-5-((4-(5-fluoro-2-oxo-2,3-dihydro-1H-benzo[d]imidazol-1-yl)piperidin-1-yl)methyl)isoindoline-1,3-dione]	A (0% ≤ substrate protein remaining % ≤ 80%)	B (80%< substrate protein remaining %≤ 100%)	B (80%< substrate protein remaining %≤ 100%)	B (80%< substrate protein remaining %≤ 100%)	B (80%< substrate protein remaining %≤ 100%)	A (0% ≤ substrate protein remaining % ≤ 80%)
O=C1CCN(N2Cc3cc(CN4CCC(N5CCCc6cc(F)ccc65)CC4)ccc3C2=O)C(=O)N1 [GT-07584, 1-(5-((4-(6-fluoro-3,4-dihydroquinolin-1(2H)-yl)piperidin-1-yl)methyl)-1-oxoisoindolin-2-yl)dihydropyrimidine-2,4(1H,3H)-dione]	A (0% ≤ substrate protein remaining % ≤ 80%)	A (0% ≤ substrate protein remaining % ≤ 80%)	B (80%< substrate protein remaining %≤ 100%)	B (80%< substrate protein remaining %≤ 100%)	B (80%< substrate protein remaining %≤ 100%)	A (0% ≤ substrate protein remaining % ≤ 80%)
O=C1CCN(N2Cc3cc(CN4CCC(N5CCOc6cc(F)ccc65)CC4)ccc3C2=O)C(=O)N1 [GT-07585, 1-(5-((4-(7-fluoro-2,3-dihydro-4H-benzo[b][1,4]oxazin-4-yl)piperidin-1-yl)methyl)-1-oxoisoindolin-2-yl)dihydropyrimidine-2,4(1H,3H)-dione]	A (0% ≤ substrate protein remaining % ≤ 80%)	A (0% ≤ substrate protein remaining % ≤ 80%)	B (80%< substrate protein remaining %≤ 100%)	B (80%< substrate protein remaining %≤ 100%)	B (80%< substrate protein remaining %≤ 100%)	A (0% ≤ substrate protein remaining % ≤ 80%)
O=C1CCN(N2Cc3cc(CN4CCC(N5C(=O)COc6cc(F)ccc65)CC4)ccc3C2=O)C(=O)N1 [GT-07586, 1-(5-((4-(7-fluoro-3-oxo-2,3-dihydro-4H-benzo[b][1,4]oxazin-4-yl)piperidin-1-yl)methyl)-1-oxoisoindolin-2-yl)dihydropyrimidine-2,4(1H,3H)-dione]	A (0% ≤ substrate protein remaining % ≤ 80%)	A (0% ≤ substrate protein remaining % ≤ 80%)	B (80%< substrate protein remaining %≤ 100%)	B (80%< substrate protein remaining %≤ 100%)	B (80%< substrate protein remaining %≤ 100%)	A (0% ≤ substrate protein remaining % ≤ 80%)
O=C1CCN(N2Cc3cc(CN4CCC(C5CCOc6cc(F)ccc65)CC4)ccc3C2=O)C(=O)N1 (stereo not drawn) [GT-07587, 1-(5-((4-(7-fluorochroman-4-yl)piperidin-1-yl)methyl)-1-oxoisoindolin-2-yl)dihydropyrimidine-2,4(1H,3H)-dione]	A (0% ≤ substrate protein remaining % ≤ 80%)	A (0% ≤ substrate protein remaining % ≤ 80%)	B (80%< substrate protein remaining %≤ 100%)	B (80%< substrate protein remaining %≤ 100%)	B (80%< substrate protein remaining %≤ 100%)	A (0% ≤ substrate protein remaining % ≤ 80%)
O=C1CCN(N2Cc3cc(CN4CCC(=C5CCOc6cc(F)ccc65)CC4)ccc3C2=O)C(=O)N1 [GT-07588, 1-(5-((4-(7-fluorochroman-4-ylidene)piperidin-1-yl)methyl)-1-oxoisoindolin-2-yl)dihydropyrimidine-2,4(1H,3H)-dione]	B (80%< substrate protein remaining %≤ 100%)	B (80%< substrate protein remaining %≤ 100%)	B (80%< substrate protein remaining %≤ 100%)	B (80%< substrate protein remaining %≤ 100%)	B (80%< substrate protein remaining %≤ 100%)	A (0% ≤ substrate protein remaining % ≤ 80%)

— EP4722207A1, “OXOISOINDOLINYL-SUBSTITUTED TETRAHYDROPYRIMIDINEDIONE DERIVATIVE AND USE THEREOF” (Gluetacs Therapeutics (Shanghai) Co., Ltd., priority 2023, dated 2024)
